Results published in patent US10154813B1, “Method and apparatus for patient skin color monitoring and drug efficacy measurement” (priority 2017, dated 2018).
“And” between values parts separate entries of the source, which are not always exact repeats. Equal entries are not always repeated.

Tested on: microvascular endothelium (skin, right arm, anterior position) of Congestive Heart Failure patients
Test: Skin colorimetry (a, b, L) before and after application of “μ” in Congestive Heart Failure patients on Valsartan, monthly for 9 months
Format: in vivo, human
Parameters: key to a. Wet after “μ”: a = red/green colour coordinate (colorimeter); key to b (Wet): b = yellow/blue colour coordinate (colorimeter)
Conditions: for L / a / b: baseline before μ; for L (Wet) / a. Wet after “μ” / b (Wet): wet after μ
Source text: As stated above, one available quantitative color system is the L*a*b* color space or Hunter L/a/b color space, which can be visualized as a rectangular 3D coordinate system. L indicates lightness, a is the red/green coordinate, and b is the yellow/blue coordinate. L can have a value from 0 (black) to 100 (perfect reflection). The a and b axes have no numerical limits. Coordinate a is positive when red, and negative when green. Positive b is yellow, and negative b is blue. Colors can be described numerically using numerical values for L, a, and b. Differences between two colors can be quantified for each of the individual L/a/b values (ΔL, Δa, Δb). Overall differences between two colors can be derived numerically based on the three Δ values.
μ=drug applied before colorimeter and/or spectrophotometer measurements.
L1, a1, b1=Initial measurement.
L2, a2, b2=Measurement with μ applied. L2−L1=ΔLμ(L2 minus L1)=change in lightness and darkness(+=lighter,−=darker) a2−a1=Δaμ(a2 minus a1)=change in red and green(+=redder,−=greener) b2−b1=Δbμ(b2 minus b1)=change in yellow and blue(+=yellower,−=bluer)
With reference to the tables below and to FIG. 18, the three different patients (Patient A, Patient B, and Patient C) had new diagnosis of Congestive Heart Failure (CHF). Patient A, B, C have diastolic and systolic heart failure with an ejection fraction of 35% with normal coronary artery disease by angiography. All three patients were started on an angiotensin receptor blocker Valsartan and followed continuously every month for 9 months. The a, b, L were calculated before and after the “μ” has been applied shown in color red. The blue indicates the baseline. At the initiation of the CHF medication Valsartan, the patient has a normal response of the microvascular endothelium after the application of “μ” in the calculations of a, b, L. All colorimetric and spectrophotometric calculations are performed at the same location on the right arm, in the anterior position in all three patients continuously for 9 months. The titration of Valsartan was maximized in all three patients. […] This occurs because it is the desired effect of the CHF medication in the above patients over the period of 9 months. The current standard of care is to improve the heart function in CHF. The cardiologist lowers the ionotropic and chronotropic effect of the heart in CHF patients. The above methodology allows for the appropriate and desired effect in being able to titrate the medication and know how much medicine to administer to the patient by either decreasing or increasing the Valsartan dose. This is performed to achieve the necessary effect of pharmacotherapy with limiting the exacerbation of heart failure symptoms in such patients. It allows for healthcare providers to also know if the effects of the medications are adequate and they are in fact working appropriately on the microscopic endothelium level of the patient. As the months progressed in the patients above, the red line calculations indicate a decreased microvascular endothelial flow. This is evaluated by measuring a decrease in the a shift.
This correlates with a decrease in the ionotropic and chronotropic effect of the heart in these patients. This is the desired effect and outcome that the cardiologist is trying to achieve. The calculation of a, b, L, after “μ” is applied is objectively calculated in these CHF patients, allowing for the proper titration of maximum medication administration while limiting the side effects of the medications concurrently.

CCCCC(=O)N(Cc1ccc(-c2ccccc2-c2nnn[nH]2)cc1)[C@H](C(=O)O)C(C)C [Valsartan]
L (Patient A, April 2017): 70.87
a (Patient A, April 2017): 5.05
b (Patient A, April 2017): 16.72
L (Patient A, December 2016): 70.63
a (Patient A, December 2016): 5.20
b (Patient A, December 2016): 16.61
L (Patient A, February 2017): 70.24
a (Patient A, February 2017): 5.12
b (Patient A, February 2017): 15.42
L (Patient A, January 2017): 71.68
a (Patient A, January 2017): 4.70
b (Patient A, January 2017): 14.67
L (Patient A, July 2017): 71.63
a (Patient A, July 2017): 5.48
b (Patient A, July 2017): 14.62
L (Patient A, June 2017): 69.91
a (Patient A, June 2017): 5.02
b (Patient A, June 2017): 15.64
L (Patient A, March 2017): 70.42
a (Patient A, March 2017): 5.14
b (Patient A, March 2017): 16.14
L (Patient A, May 2017): 71.99
a (Patient A, May 2017): 4.98
b (Patient A, May 2017): 15.47
L (Patient A, November 2016): 70.10
a (Patient A, November 2016): 5.59
b (Patient A, November 2016): 15.39
L (Wet) (Patient A, April 2017): 70.72
a. Wet after “μ” (Patient A, April 2017): 4.54
b (Wet) (Patient A, April 2017): 16.78
L (Wet) (Patient A, December 2016): 69.98
a. Wet after “μ” (Patient A, December 2016): 6.35
b (Wet) (Patient A, December 2016): 16.81
L (Wet) (Patient A, February 2017): 70.12
a. Wet after “μ” (Patient A, February 2017): 6.08
b (Wet) (Patient A, February 2017): 16.44
L (Wet) (Patient A, January 2017): 71.76
a. Wet after “μ” (Patient A, January 2017): 6.48
b (Wet) (Patient A, January 2017): 16.48
L (Wet) (Patient A, July 2017): 70.04
a. Wet after “μ” (Patient A, July 2017): 4.46
b (Wet) (Patient A, July 2017): 16.31
L (Wet) (Patient A, June 2017): 70.54
a. Wet after “μ” (Patient A, June 2017): 4.43
b (Wet) (Patient A, June 2017): 15.89
L (Wet) (Patient A, March 2017): 69.42
a. Wet after “μ” (Patient A, March 2017): 4.64
b (Wet) (Patient A, March 2017): 16.85
L (Wet) (Patient A, May 2017): 69.79
a. Wet after “μ” (Patient A, May 2017): 4.20
b (Wet) (Patient A, May 2017): 15.62
L (Wet) (Patient A, November 2016): 68.40
a. Wet after “μ” (Patient A, November 2016): 7.06
b (Wet) (Patient A, November 2016): 16.16
L (Patient B, April 2017): 73.95
a (Patient B, April 2017): 3.25
b (Patient B, April 2017): 15.34
L (Patient B, December 2016): 72.77
a (Patient B, December 2016): 3.36
b (Patient B, December 2016): 4.88
L (Patient B, February 2017): 74.52
a (Patient B, February 2017): 3.06
b (Patient B, February 2017): 13.98
L (Patient B, January 2017): 74.06
a (Patient B, January 2017): 2.66
b (Patient B, January 2017): 15.09
L (Patient B, July 2017): 74.23
a (Patient B, July 2017): 4.20
b (Patient B, July 2017): 14.14
L (Patient B, June 2017): 74.05
a (Patient B, June 2017): 3.85
b (Patient B, June 2017): 14.35
L (Patient B, March 2017): 74.43
a (Patient B, March 2017): 3.09
b (Patient B, March 2017): 14.08
L (Patient B, May 2017): 73.52
a (Patient B, May 2017): 3.40
b (Patient B, May 2017): 15.02
L (Patient B, November 2016): 73.44
a (Patient B, November 2016): 4.15
b (Patient B, November 2016): 13.69
L (Wet) (Patient B, April 2017): 72.58
a. Wet after “μ” (Patient B, April 2017): 3.03
b (Wet) (Patient B, April 2017): 15.69
L (Wet) (Patient B, December 2016): 73.59
a. Wet after “μ” (Patient B, December 2016): 4.04
b (Wet) (Patient B, December 2016): 15.27
L (Wet) (Patient B, February 2017): 72.56
a. Wet after “μ” (Patient B, February 2017): 3.3
b (Wet) (Patient B, February 2017): 14.4
L (Wet) (Patient B, January 2017): 74.23
a. Wet after “μ” (Patient B, January 2017): 3.37
b (Wet) (Patient B, January 2017): 15.38
L (Wet) (Patient B, July 2017): 72.54
a. Wet after “μ” (Patient B, July 2017): 2.25
b (Wet) (Patient B, July 2017): 14.39
L (Wet) (Patient B, June 2017): 72.47
a. Wet after “μ” (Patient B, June 2017): 2.88
b (Wet) (Patient B, June 2017): 15.29
L (Wet) (Patient B, March 2017): 72.62
a. Wet after “μ” (Patient B, March 2017): 3.29
b (Wet) (Patient B, March 2017): 15.85
L (Wet) (Patient B, May 2017): 73.47
a. Wet after “μ” (Patient B, May 2017): 3.71
b (Wet) (Patient B, May 2017): 15.54
L (Wet) (Patient B, November 2016): 70.43
a. Wet after “μ” (Patient B, November 2016): 4.89 and 4.79
b (Wet) (Patient B, November 2016): 15.14
L (Patient C, April 2017): 73.05
a (Patient C, April 2017): 3.16
b (Patient C, April 2017): 16.12
L (Patient C, December 2016): 75.47
a (Patient C, December 2016): 2.84
b (Patient C, December 2016): 13.73
L (Patient C, February 2017): 73.55
a (Patient C, February 2017): 3.64
b (Patient C, February 2017): 14.96
L (Patient C, January 2017): 74.63
a (Patient C, January 2017): 3.93
b (Patient C, January 2017): 15.73
L (Patient C, July 2017): 75.00
a (Patient C, July 2017): 3.55
b (Patient C, July 2017): 14.75
L (Patient C, June 2017): 74.45
a (Patient C, June 2017): 3.44
b (Patient C, June 2017): 14.63
L (Patient C, March 2017): 74.06
a (Patient C, March 2017): 3.20
b (Patient C, March 2017): 14.54
L (Patient C, May 2017): 75.26
a (Patient C, May 2017): 3.50
b (Patient C, May 2017): 15.22
L (Patient C, November 2016): 73.84
a (Patient C, November 2016): 3.35
b (Patient C, November 2016): 14.01
L (Wet) (Patient C, April 2017): 72.89
a. Wet after “μ” (Patient C, April 2017): 2.95
b (Wet) (Patient C, April 2017): 17.26
L (Wet) (Patient C, December 2016): 72.57
a. Wet after “μ” (Patient C, December 2016): 4.84
b (Wet) (Patient C, December 2016): 14.8
L (Wet) (Patient C, February 2017): 72.41
a. Wet after “μ” (Patient C, February 2017): 3.07
b (Wet) (Patient C, February 2017): 15.66
L (Wet) (Patient C, January 2017): 74.12
a. Wet after “μ” (Patient C, January 2017): 3.18
b (Wet) (Patient C, January 2017): 15.31
L (Wet) (Patient C, July 2017): 74.72
a. Wet after “μ” (Patient C, July 2017): 2.3
b (Wet) (Patient C, July 2017): 14.39
L (Wet) (Patient C, June 2017): 72.13
a. Wet after “μ” (Patient C, June 2017): 2.75
b (Wet) (Patient C, June 2017): 15.6
L (Wet) (Patient C, March 2017): 73.55
a. Wet after “μ” (Patient C, March 2017): 3.05
b (Wet) (Patient C, March 2017): 13.67
L (Wet) (Patient C, May 2017): 73.69
a. Wet after “μ” (Patient C, May 2017): 3.1
b (Wet) (Patient C, May 2017): 15.17
L (Wet) (Patient C, November 2016): 71.42
a. Wet after “μ” (Patient C, November 2016): 4.99
b (Wet) (Patient C, November 2016): 14.01
effect on flow to the microvascular circulation of the endothelium (a shift after μ) (Patients A, B, C, at rest, over 9 months, maximized titration): a decrease in the flow to the microvascular circulation of the endothelium at rest
